Test results published in PubChem BioAssay AID1963421 (Molecular Pharmacology Branch, DTP, NCI, 2024).

Test system: 519858-162-T-J1-PDC complex spheroid growth, % test/control
Test: Anticancer human tumor 519858-162-T-J1-PDC patient-derived colon adenocarcinoma cell line growth inhibition [Asc]
Conditions: for IC50: curve of first compound; for viability, T/C: stronger effect = lower value
Outline: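 Complex spheroids combining tumor cells with HUVEC endothelial cells and human MSCs, at 37 degrees C, 5% CO2; agents tested alone or combined, half-log dilutions from at or near clinical Cmax, or 10 microM if Cmax unknown.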
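Also: seven day drug exposure begun three days after spheroid seeding.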
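For viability, T/C in this document: 100% = DMSO vehicle wells and lower values mean less viable spheroid.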

IC50 (second compound 0.0316 µM): > 1000 nM
IC50 (second compound 0.1 µM): > 1000 nM
IC50 (second compound 0.316 µM): > 1000 nM
IC50 (second compound 1 µM): > 1000 nM
IC50 (second compound 3.16 µM): > 1000 nM
IC50 (second compound 10 µM): 506 nM
Structure (SMILES): CNC(C)C(=O)NC1CN(S(=O)(=O)c2cccc(S(=O)(=O)N3CCC4CCC(C(=O)NC(c5ccccc5)c5ccccc5)N4C(=O)C(NC(=O)C(C)NC)C3)c2)CCC2CCC(C(=O)NC(c3ccccc3)c3ccccc3)N2C1=O (configuration not stated) + Cc1c(S(C)(=O)=O)c(-c2cc(F)cc(N3CCN(c4ccc(NS(=O)(=O)c5ccc(NC(CCN6CCC(C(=O)OCCCP(=O)(O)O)CC6)CSc6ccccc6)c(S(=O)(=O)C(F)(F)F)c5)cc4)CC3)c2)c(-c2ccc(Cl)cc2)n1C(C)C
viability, T/C (second compound 0.0316 µM, first compound 0.00316 µM): 92.5%
viability, T/C (second compound 0.0316 µM, first compound 0.01 µM): 110%
viability, T/C (second compound 0.0316 µM, first compound 0.0316 µM): 45%
viability, T/C (second compound 0.0316 µM, first compound 0.1 µM): 110%
viability, T/C (second compound 0.0316 µM, first compound 0.316 µM): 81.5%
viability, T/C (second compound 0.0316 µM, first compound 1 µM): 81.5%
viability, T/C (second compound 0.1 µM, first compound 0.00316 µM): 113%
viability, T/C (second compound 0.1 µM, first compound 0.01 µM): 117%
viability, T/C (second compound 0.1 µM, first compound 0.0316 µM): 124%
viability, T/C (second compound 0.1 µM, first compound 0.1 µM): 90%
viability, T/C (second compound 0.1 µM, first compound 0.316 µM): 76.7%
viability, T/C (second compound 0.1 µM, first compound 1 µM): 97.5%
viability, T/C (second compound 0.316 µM, first compound 0.00316 µM): 104%
viability, T/C (second compound 0.316 µM, first compound 0.01 µM): 107%
viability, T/C (second compound 0.316 µM, first compound 0.0316 µM): 86.8%
viability, T/C (second compound 0.316 µM, first compound 0.1 µM): 78.5%
viability, T/C (second compound 0.316 µM, first compound 0.316 µM): 72.3%
viability, T/C (second compound 0.316 µM, first compound 1 µM): 87.1%
viability, T/C (second compound 1 µM, first compound 0.00316 µM): 102%
viability, T/C (second compound 1 µM, first compound 0.01 µM): 100%
viability, T/C (second compound 1 µM, first compound 0.0316 µM): 83.6%
viability, T/C (second compound 1 µM, first compound 0.1 µM): 93%
viability, T/C (second compound 1 µM, first compound 0.316 µM): 96.5%
viability, T/C (second compound 1 µM, first compound 1 µM): 68.9%
viability, T/C (second compound 3.16 µM, first compound 0.00316 µM): 86.9%
viability, T/C (second compound 3.16 µM, first compound 0.01 µM): 93%
viability, T/C (second compound 3.16 µM, first compound 0.0316 µM): 95.7%
viability, T/C (second compound 3.16 µM, first compound 0.1 µM): 82.5%
viability, T/C (second compound 3.16 µM, first compound 0.316 µM): 66.8%
viability, T/C (second compound 3.16 µM, first compound 1 µM): 75%
viability, T/C (second compound 10 µM, first compound 0.00316 µM): 60.5%
viability, T/C (second compound 10 µM, first compound 0.01 µM): 63.2%
viability, T/C (second compound 10 µM, first compound 0.0316 µM): 70.2%
viability, T/C (second compound 10 µM, first compound 0.1 µM): 49%
viability, T/C (second compound 10 µM, first compound 0.316 µM): 63.1%
viability, T/C (second compound 10 µM, first compound 1 µM): 33.9%
